Patent US20020035061A1, “COMPOSITIONS AND METHODS FOR TREATING INFECTIONS USING CATIONIC PEPTIDES ALONE OR IN COMBINATION WITH ANTIBIOTICS” (priority 1996, published 2002)
Like-named read-outs stand apart in the source and are kept apart here.

Legend:
Format in all cases: cell-based
[1] = tested on: E. faecalis
[2] = tested on: S. aureus
[3] = tested on: E. faecium
[4] = tested on: K. pneumoniae
[5] = tested on: A. calcoaceticus
[6] = tested on: E. cloacae
[7] = tested on: S. marcescens
[8] = tested on: P. aeruginosa
[9] = tested on: E. coli
[10] = tested on: S. maltophilia

Row | Sequence | MIC ([1]; E. faecalis strain EFS002) [µg/mL] | MIC ([2]; S. aureus strain SA009) [µg/mL] | MIC ([3]; E. faecium strain EFM003) [µg/mL] | MIC ([5]; A. calcoaceticus strain AC001) [µg/mL] | MIC ([6]; E. cloacae strain ECL007) [µg/mL] | MIC ([7]; S. marcescens strain SMS003) [µg/mL] | MIC ([8]; P. aeruginosa strain PA003) [µg/mL] | MIC ([9]; E. coli strain ECO003) [µg/mL] | MIC ([10]; S. maltophilia strain SMA001) [µg/mL] | MIC ([4]; K. pneumoniae strain KP001) [µg/mL] | further results
1 | ILKKWPWWWRK [MBI 11D15CN] | 32 | 8 | 4 | – | – | – | – | – | – | – | –
2 | ILKKWPWWPWRRK [MBI 11] | – | – | – | – | – | – | – | – | – | – | MIC ([4]; K. pneumoniae KP001): 128 µg/mL; MIC ([5]; A. calcoaceticus AC002): 8 µg/mL; MIC ([6]; E. cloacae ECL007): >128 µg/mL; MIC ([1]; E. faecalis EFS002): 64 µg/mL; MIC ([7]; S. marcescens SMS004): >128 µg/mL; MIC ([2]; S. aureus SA004): 4 µg/mL; MIC ([8]; P. aeruginosa PA004): >128 µg/mL; MIC ([9]; E. coli ECO002): 64 µg/mL; MIC ([10]; S. maltophilia SMA002): 128 µg/mL; MIC ([3]; E. faecium EFM003): 4 µg/mL
3 | ILKKWPWWPWRRK [MBI 11E1CN] | 8 | – | – | 32 | >128 | >128 | 128 | 8 | 64 | – | MIC ([4]; K. pneumoniae strain KP002): 39 µg/mL; MIC ([2]; S. aureus strain SA006): 1 µg/mL; MIC ([3]; E. faecium strain EFM001): 8 µg/mL
4 | ILKKYPWYPWRRK [MBI 11A5CN] | 32 | – | 4 | >128 | >128 | >128 | >128 | 128 | – | >128 | MIC ([2]; S. aureus strain SA002): 16 µg/mL; MIC ([10]; S. maltophilia strain SMA002): >128 µg/mL
5 | ILKKPWWPWRRK [MBI 11G3CN] | 64 | 8 | – | – | >128 | – | >128 | 64 | >128 | >128 | MIC ([7]; S. marcescens strain SMS004): >128 µg/mL; MIC ([3]; E. faecium strain EFM002): 32 µg/mL
6 | ILKKWWWPWRK [MBI 11D14CN] | 32 | 4 | 1 | – | – | – | – | – | – | – | –
